Reference: publication PMC11404609, “Gut microbiota-mediated C-sulfonate metabolism impairs the bioavailability and anti-cholestatic efficacy of andrographolide” (Gut Microbes, 2024)

Assays:
D. piger = format: in vitro ADME, Desulfovibrio piger
Procedure: The cecum contents from mice were collected and mixed with sterilized anaerobic medium in a ratio of 1.0 g to 10 mL, with gentle agitation. After filtered, the mixed medium containing the intestinal flora was placed in an anaerobic environment and preincubated at 37°C for 30 min before use. Mixed medium with or without APS reductase inhibitor bromocriptine mesylate (20 μg/mL) was incubated with AP (10 μg/mL), while autoclaved mixed medium without APS reductase inhibitor served as the control. Incubation was performed in a shaking incubator at 37°C for 6 h, with strict maintenance of anaerobic condition throughout the process.[44] Similarly, D. piger (0.2 mL, 1 × 10^8 CFU/mL) with or without inhibitor, was incubated with AP for 0, 3, 6, and 12 h, with autoclaved D. piger without inhibitor serving as the control. […] And then samples were analyzed by UPLC-MS/MS to detect the concentrations of AP and APM. Concentrations of APS reductase and HSO3^− were also determined at the end of incubation.
For the determination of APS reductase concentration, the supernatant from mouse cecum contents and the D. piger strain were assessed using microorganism APS reductase elisa assay kit (Shanghai Senxingyan Biotechnology Co., Ltd., China), following the instructions provided with the kit. […] Subsequently, the absorbance of the resulting solutions was measured at a wavelength of 560 nm after 40 min.

FXR = FXR expression in liver (RNA sequencing, qPCR, Western blot); format: in vivo, mice
Procedure: RNA in liver tissue was isolated from mice treated with ANIT and ANIT+AP (200 mg/kg, i.p.) and purified by TRIzol (Invitrogen, CA). The isolated RNA was quantified using Qubit 2.0 (Thermo Fisher Scientific, USA) following the manufacturer’s protocol. Libraries were prepared using the NEBNext® UltraTM RNA Library Prep Kit for Illumina® (NEB, USA) and sequenced on a Novaseq 6000 (Illumina, USA) at Novogene’s deep sequencing facility. Mapped reads from each sample were assembled using StringTie (v1.3.3b) in a reference-based approach, and featureCounts was used to quantify mapped reads. Differential expression analysis of two conditions/groups was performed using the DESeq2 R package (1.20.0).
Total RNA from frozen livers of Vehicle, AP (200 mg/kg, i.p.), ANIT (50 mg/kg), and ANIT+AP (200 mg/kg, i.p.) groups was extracted using the Animal Total RNA Isolation Kit (FOREGENE, China). cDNA was synthesized using a Color Reverse Transcription Kit (EZBioscience, Roseville, CA, USA). qPCR was performed using SYBR green/Rox qPCR master mix (EZBioscience, Roseville, CA, USA), according to the manufacturer’s instruction. The expression of target genes was normalized to β-actin, and fold changes were calculated using 2^–ΔΔCT method. For bacterial identification, genomic DNA of fecal flora was isolated using the TIANamp Stool DNA Kit (TIANGEN, Beijing, China) and qPCR was performed. […]

[1] = tested on: FXR downstream bile acid transporters; assay: Expression of FXR downstream bile acid transporters in liver (qPCR, Western blot); format: in vivo, mice; details: AP 200 mg/kg i.p.
Procedure: Total RNA from frozen livers of Vehicle, AP (200 mg/kg, i.p.), ANIT (50 mg/kg), and ANIT+AP (200 mg/kg, i.p.) groups was extracted using the Animal Total RNA Isolation Kit (FOREGENE, China). cDNA was synthesized using a Color Reverse Transcription Kit (EZBioscience, Roseville, CA, USA). qPCR was performed using SYBR green/Rox qPCR master mix (EZBioscience, Roseville, CA, USA), according to the manufacturer’s instruction. The expression of target genes was normalized to β-actin, and fold changes were calculated using 2^–ΔΔCT method. For bacterial identification, genomic DNA of fecal flora was isolated using the TIANamp Stool DNA Kit (TIANGEN, Beijing, China) and qPCR was performed. The relative abundance and expression of Desulfovibrio spp., D. piger and APS reductase were normalized to the amounts of total bacteria (16S). All primers were synthesized by Tsingke Biotechnology Co., Ltd. (Beijing, China) and were listed in Supplementary Table S1.
Liver tissue from Vehicle, AP (200 mg/kg, i.p.), ANIT (50 mg/kg), and ANIT+AP (200 mg/kg, i.p.) groups was homogenized in RIPA buffer (Thermo Scientific). […] The collected supernatant was quantified using BCA protein assay kit (Epizyme). […] To visualize the protein bands, the membrane was reacted with Immobilon Forte Western HRP (Millipore) substrate solution for 2 min and analyzed using Tanon5200 imager. […]

`C=C1CC[C@@H]2[C@](C)(CO)[C@H](O)CC[C@@]2(C)[C@@H]1C/C=C1/C(=O)OC[C@H]1O` [AP, Andrographolide] was tested, and the “metabolism of AP into APM by D. piger in vitro” value (D. piger) was “time-dependent ability to metabolize AP into APM”, the “expression of Fxr (Nr1h4) by RNA-sequencing” value (FXR; ANIT+AP (200 mg/kg, i.p.) vs ANIT) was “significant upregulation” and the “FXR expression by qPCR and Western blot” value (FXR; after AP treatment (200 mg/kg, i.p.)) was “upregulation of FXR expression”. For the same compound, the “expression of FXR downstream bile acid transporters (Mrp2, Mrp3, Mrp4, Oatp1, and Ntcp, except for Bsep, Ost-α and Ost-β)” value [1] was “heightened the expression”.
